Measured values from the NIST ThermoML archive (doi:10.1016/j.jct.2010.05.002).

Assay: molar heat capacity at constant pressure
Conditions: 101.33 kPa, Crystal 2, Vacuum adiabatic calorimetry

Cc1ccc(-c2ccccc2)cc1 [4-methylbiphenyl]
Conditions | molar heat capacity at constant pressure [J/K/mol]
83.21 K | 81.22
84.78 K | 82.63
85.83 K | 84.24
87.34 K | 85.25
88.37 K | 86.4
89.4 K | 87.09
90.43 K | 87.85
91.47 K | 88.19
92.5 K | 89.19
93.53 K | 89.62
94.55 K | 90.59
95.58 K | 91.13
96.61 K | 92.3
97.64 K | 93.83
98.66 K | 92.61
99.69 K | 94.23
100.72 K | 95.15
101.74 K | 95.13
102.77 K | 95.55
104.82 K | 96.61
105.84 K | 97.41
106.86 K | 98.57
107.88 K | 99.36
108.9 K | 99.57
109.93 K | 100.46
110.95 K | 100.63
111.97 K | 100.49
112.99 K | 102.03
114.01 K | 102.56
115.02 K | 103.36
116.04 K | 104.67
117.06 K | 104.77
118.08 K | 104.33
119.1 K | 105.95
120.12 K | 106.87
121.14 K | 106.67
122.15 K | 107.47
123.17 K | 108.38
124.18 K | 108.38
125.2 K | 108.94
126.21 K | 110.22
127.23 K | 110.82
128.23 K | 111.43
129.25 K | 111
130.26 K | 112.24
131.27 K | 113.68
132.28 K | 113.17
133.29 K | 114.17
134.3 K | 115.39
135.31 K | 115.98
136.32 K | 115.79
137.33 K | 115.95
138.33 K | 116.76
139.34 K | 118.07
140.34 K | 119.05
141.35 K | 119.04
142.35 K | 119.96
143.36 K | 120
144.35 K | 120.48
145.36 K | 120.67
146.36 K | 122
147.36 K | 122.17
148.36 K | 124.22
149.36 K | 124.87
150.36 K | 125.07
151.36 K | 125.72
153.66 K | 127.07
154.92 K | 127.26
155.92 K | 127.72
156.91 K | 128.68
157.91 K | 129.05
158.9 K | 129.98
159.89 K | 130.91
162.88 K | 133.43
163.87 K | 132.72
164.87 K | 133.55
165.85 K | 133.77
166.84 K | 134.91
167.83 K | 135.89
169.79 K | 137.42
170.78 K | 137.22
171.76 K | 137.79
172.74 K | 138.45
173.73 K | 139.11
174.71 K | 140.53
175.69 K | 140.7
176.68 K | 141.47
177.66 K | 142.43
178.64 K | 143.15
179.62 K | 143.76
180.6 K | 144.25
181.58 K | 145.06
182.56 K | 146.17
183.54 K | 146.07
184.52 K | 146.77
185.47 K | 148
186.45 K | 148.42
187.42 K | 148.71
188.4 K | 149.77
189.37 K | 150.31
190.34 K | 151.29
191.32 K | 152.46
192.29 K | 153.07
193.26 K | 153.26
194.23 K | 154.48
195.2 K | 154.92
196.17 K | 155.18
197.14 K | 156.43
198.1 K | 156.66
199.07 K | 156.85
